Data reported in article PMC9636434, “Discovery of small molecule agonists of the Relaxin Family Peptide Receptor 2” (Communications Biology, 2022).
Where “and” joins values, the source holds several entries; their conditions need not be identical. Equal values may be shown once.

Assays:
[1] = molecular target: CCKAR (Homo sapiens, UniProt P32238); assay: PRESTO-Tango β-arrestin recruitment, CCKAR; format: cell-based; settings: 10 µM compound; basal level of detection 3-fold RLU
[2] = molecular target: T1, human ADORA1 (Homo sapiens, UniProt P30542); assay: PRESTO-Tango β-arrestin recruitment, ADORA1 transfected HTLA cells; format: cell-based; settings: for RLU: replicates (1)-(4)
T1 sequence (P30542 1-326): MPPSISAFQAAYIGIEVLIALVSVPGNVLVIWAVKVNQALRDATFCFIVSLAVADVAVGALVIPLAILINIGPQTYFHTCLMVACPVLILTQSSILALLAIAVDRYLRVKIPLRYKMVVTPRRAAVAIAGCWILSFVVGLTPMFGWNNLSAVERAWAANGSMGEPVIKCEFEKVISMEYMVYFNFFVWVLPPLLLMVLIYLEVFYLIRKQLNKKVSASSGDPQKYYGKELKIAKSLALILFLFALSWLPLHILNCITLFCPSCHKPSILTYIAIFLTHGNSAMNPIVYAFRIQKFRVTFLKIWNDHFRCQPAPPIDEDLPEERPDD

[3] = test system: HCO cells; assay: CellTiter-Glo cytotoxicity assay in HCO cells; format: cell-based, human; settings: experiments (1)-(3)
Description: Fig. 4 RXFP2 agonists induce mineralization of primary human osteoblasts and are non-cytotoxic. a Mineral hydroxyapatite fluorescent quantification after 14-day treatment in HCO cells. Results were normalized to control DMSO as 100% mineralization. b HCO and c HAVSMC toxicity after 24-h treatment with RXFP2 agonists, normalized to DMSO treatment as 0% toxicity. Results are expressed as mean ± SEM of 3 independent experiments. *p < 0.05, *** p < 0.001 vs. DMSO using One-way ANOVA.
Cell viability studies were undertaken to identify potential cytotoxic effects of the RXFP2 agonists. HCO cells and human aortic vascular smooth muscle cells (HAVSMC) were treated for 24 h. […] At 8.3 µM and below, no toxicity was found in HCO cells and toxicity was below 20% in HAVSMC cells for all three compounds (Fig. 4b, c).
The ATP CellTiter-Glo Luminescent Cell Viability Assay (Promega, Madison, WI) was used to measure cytotoxicity induced by the compounds in HCO cells and human aortic vascular smooth muscle cells (HAVSMC) (ATCC, Manassas, VA). HCO and HAVSMC cells were seeded in 96-well plates at 3000 and 7000 cells per well respectively. Cells were incubated overnight, treated with compound or DMSO vehicle and incubated for 24 h at 37 °C, 5% CO2. […] Plates were shaken for 2 min, incubated at room temperature for 10 min and the luminescent signal was read on a CLARIOstar plate reader.

[4] = follow-up test using multiple compound concentrations

CCKAR, sequence (P32238 whole entry): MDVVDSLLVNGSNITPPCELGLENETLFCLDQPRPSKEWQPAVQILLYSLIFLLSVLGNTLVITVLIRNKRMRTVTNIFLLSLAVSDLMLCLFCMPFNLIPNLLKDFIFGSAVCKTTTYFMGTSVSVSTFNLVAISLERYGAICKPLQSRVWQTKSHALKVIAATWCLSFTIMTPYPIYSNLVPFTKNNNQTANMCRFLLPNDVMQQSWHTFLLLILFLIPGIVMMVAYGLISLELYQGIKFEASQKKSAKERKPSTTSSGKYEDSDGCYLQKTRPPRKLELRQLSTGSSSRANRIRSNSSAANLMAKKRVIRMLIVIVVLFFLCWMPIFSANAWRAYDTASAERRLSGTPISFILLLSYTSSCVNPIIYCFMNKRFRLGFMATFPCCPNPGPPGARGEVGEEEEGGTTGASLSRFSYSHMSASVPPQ

For O=C1Nc2ccc(-c3cc(C(F)(F)F)cc(C(F)(F)F)c3)cc2C(=O)N2CCN(C(=O)COc3ccc(OC(F)(F)F)cc3I)C[C@@H]12 [compound 6641], the “β-arrestin recruitment, CCKAR (mean ± SEM)” value [1] was 3.42 ± 0.15 fold RLU, the “β-arrestin recruitment, ADORA1 (mean ± SEM)” value ([2]; 10 µM compound, basal level of detection 3-fold RLU) was 3.92 ± 0.15 fold RLU and the RLU ([2]; Log [M] -4.52) was 12779.2 RLU and 12694.9 RLU. For the same compound, the RLU ([2]; Log [M] -5) was 11730.3 RLU and 10165.7 RLU and 11306.6 RLU, the RLU ([2]; Log [M] -5.52) was 8500.46 RLU and 7004.94 RLU and 7182.3 RLU and 7062.97 RLU and the RLU ([2]; Log [M] -6) was 6700.59 RLU and 4967.56 RLU and 5863.08 RLU and 4072.06 RLU. For the same compound, the RLU ([2]; Log [M] -6.52) was 3400.99 RLU and 2989.38 RLU and 3675.77 RLU and 3380.19 RLU, the RLU ([2]; Log [M] -7) was 3045.21 RLU and 3372.53 RLU and 2679.57 RLU and 3462.3 RLU and the RLU ([2]; Log [M] -7.52) was 2808.75 RLU and 2538.36 RLU and 2762.77 RLU and 2945.59 RLU. The RLU ([2]; Log [M] -8) was 3154.68 RLU and 2602.94 RLU and 3418.51 RLU and 3449.16 RLU, the RLU ([2]; Log [M] -8.52) was 2742.95 RLU and 3614.63 RLU and 3319.34 RLU and 3617.47 RLU and the RLU ([2]; Log [M] -9) was 3242.68 RLU and 2896.28 RLU and 3413.04 RLU and 3315.08 RLU. The RLU ([2]; Log [M] -9.52) was 3821.91 RLU and 2910.47 RLU and 2806.84 RLU and 4087.39 RLU, the RLU ([2]; Log [M] -10) was 2500.19 RLU and 3249.78 RLU and 3509.58 RLU and 3875.86 RLU and the RLU ([2]; Log [M] -10.52) was 3874.43 RLU and 2887.76 RLU and 2717.4 RLU and 3465.57 RLU. For the same compound, the RLU ([2]; Log [M] -11) was 3657.22 RLU and 3613.21 RLU and 3589.08 RLU and 3231.32 RLU, the RLU ([2]; Log [M] -11.52) was 2119.72 RLU and 4131.4 RLU and 3244.1 RLU and 3141.88 RLU and the RLU ([2]; Log [M] -12) was 3765.12 RLU and 3810.55 RLU and 4489.16 RLU and 3752.34 RLU. The “ADORA1 β-arrestin efficacy compared with NECA” value [2, 4] was “much lower efficacy”, the “concentrations at which ADORA1 responded (β-arrestin)” value [2, 4] was “above 1 µM” and the “% Tox” value ([3]; Log [M] -6.03, 24 h) was -11.63% and -7.45% and -4.96%. For the same compound, the “% Tox” value ([3]; Log [M] -6.51, 24 h) was -9.76% and -5.09% and -6.71%.
